Results on eleven compounds are retold here after paper PMC10195864, “Stereochemical engineering yields a multifunctional peptide macrocycle inhibitor of Akt2 by fine-tuning macrocycle-cell membrane interactions” (Communications Chemistry, 2023).

A word on the EC50: it is the concentration that produces a half-maximal response.

Values joined by “and” are separate entries in the source; they are usually repeats but may differ in a detail not shown here. Identical values can stand only once. “Also recorded” adds a separate entry of the source. Like-named read-outs stand apart in the source and are kept apart here. Positions of bridges follow the written chain, without caps; N, C: chain ends. Non-standard residues stand in square brackets, D forms with d. Residues, ends and D or L forms follow the SMILES beside them. R8 = C=CCCCCCC[C@@](C)(N)C(=O)O; S5 = C=CCCC[C@](C)(N)C(=O)O

For assay [1], the target named is T1, pAkt2 (active His6-tagged Akt2) (Homo sapiens, UniProt P31751).
T1 construct: purchased Abcam
In words: ELISA for peptides against full-length pAkt2 protein (serial dilution). It is filed as binding. The conditions noted are these: biotinylated ligand immobilized, His6-pAkt2 titrated. The method, then: A total of 2 μM solution of each biotinylated peptide was prepared in binding buffer. A total of 100 μL of each solution was added to each well of a High-Capacity Streptavidin 96 well plate (Thermo Scientific), and the plate was shaken for 2 h at room temperature. The wells were blocked with 5% milk in 25 mM tris chloride, pH = 7.4, 150 mM NaCl and 0.05% Tween 20 (TBST). The wells were washed with binding buffer five times. Serial dilutions of active His6-tagged Akt2 were made in the binding buffer. A total of 100 μL of each solution was added per well, and the plate was shaken overnight at 4 °C. The wells were washed three times with the binding buffer, then treated for an hour with a 1:1000 dilution of anti 6X His mouse monoclonal [HIS.H8] antibody. A 1:10,000 dilution of goat anti-mouse antibody-Horse Radish Peroxide conjugate in binding buffer was added to the wells for an hour. The plate was washed three times with TBST and once with TBS (25 mM tris chloride, pH = 7.5, 150 mM NaCl), treated with TMB substrate (KPL), and quenched with sulfuric acid, and the absorbance at 450 nm wavelength measured. From the absorbance values at 450 nm wavelength (A450) for each protein concentration, the corresponding blank A450 (no ligand immobilized, same concentration of protein added) was subtracted. They were then fitted by non-linear regression in GraphPad Prism 6.
(In general: ELISA stands for enzyme-linked immunosorbent assay.)

In the next assay the test system is recombinant Akt3. Details: method as in PMID 25329478. The conditions noted are these: recombinant Akt; cited from earlier work.
In the next assay the target is T2, pAkt2 (Homo sapiens, UniProt P31751).
T2 construct: purchased Abcam
The experiment in a line: Protein selectivity ELISA, 25 nM protein. It is filed as binding. As to conditions: for binding to pAkt2: single-point ELISA, 25 nM protein, A450. The method, then: A total of 1.25 μM biotinylated ligand was prepared by diluting the 1 mM stock in binding buffer (0.1% BSA, 25 mM trisCl, pH = 7.5, 150 mM NaCl, 0.05% Tween20). The prepared ligand solution or 0.125% DMSO (buffer control) in binding buffer was immobilized on a High-Capacity Streptavidin 96 well plate (Thermo Scientific). After washing the excess ligand, the plate was blocked overnight with 1% BSA in TBST. […] After three washes with the binding buffer, the plate was treated for an hour with a 1:1000 dilution of anti-His6 mouse monoclonal antibody in the binding buffer. A 1:10,000 dilution of goat anti-mouse antibody conjugated to Horse Radish Peroxide in binding buffer was added to the wells. The plates were washed four times, five minutes each, with TBST and once with TBS. The color was developed by adding TMB substrate to each well. The reaction was quenched with 0.5 M H2SO4. The absorbance values at 450 nm (A450) were measured on a 96-well plate reader. The Net A450 was obtained by subtracting the absorbance value for the blank control (no immobilized ligand) from each triplicate value obtained for the ligand–epitope interaction.

Assay [2] addresses T1, pAkt2 (active His6-tagged Akt2). Details: method as in PMID 26377818. The conditions noted are these: read-out: EC50 against pAkt2; cited from earlier work.
Assay [3] deals with T3, target phosphopeptide epitope, Akt2 amino acids 450–481 (pS474) (Homo sapiens, UniProt P31751).
T3 construct: made in house; host or cells: chemical solid-phase peptide synthesis
T3 sequence (P31751 450-481 limits assumed): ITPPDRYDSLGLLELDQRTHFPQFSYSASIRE
The experiment in a line: Epitope selectivity ELISA, 2.5 µM His6-tagged epitope. It is filed as binding. As to conditions: 1.25 µM ligand immobilized, 2.5 µM epitope. The method, then:
A total of 1.25 μM biotinylated ligand was prepared by diluting the 1 mM stock in binding buffer (0.1% BSA, 25 mM trisCl, pH = 7.5, 150 mM NaCl, 0.05% Tween20). The prepared ligand solution or 0.125% DMSO (buffer control) in binding buffer was immobilized on a High-Capacity Streptavidin 96 well plate (Thermo Scientific). After washing the excess ligand, the plate was blocked overnight with 1% BSA in TBST. 2.5 μM solutions of the His6-tagged target phosphopeptide epitope, Akt2 amino acids 450–481, or His6-tagged scrambled peptide was added to each of the wells and incubated overnight. After three washes with the binding buffer, the plate was treated for an hour with a 1:1000 dilution of anti-His6 mouse monoclonal antibody in the binding buffer. A 1:10,000 dilution of goat anti-mouse antibody conjugated to Horse Radish Peroxide in binding buffer was added to the wells. The plates were washed four times, five minutes each, with TBST and once with TBS. […] The absorbance values at 450 nm (A450) were measured on a 96-well plate reader. The Net A450 was obtained by subtracting the absorbance value for the blank control (no immobilized ligand) from each triplicate value obtained for the ligand–epitope interaction. […]
-FPQF(pS)YSAS-IRE and the scrambled epitope His6–Peg2-ITPPDRYDSLGLLELQRTH-YFFASQPSS-IRE overnight. […] The absorbance at 450 nm is measured to quantitate the binding. […]

The target of assay [4] is macrocycle C2, Cy(YYTYTG-rcm). In words: ELISA; biotinylated peptide (2 μM) immobilised on a streptavidin plate; serial dilutions of active His6-tagged Akt2 in binding buffer (0.1% BSA, 25 mM trisCl pH 7.5, 150 mM NaCl, 0.05% Tween20), overnight at 4 °C; detected with anti-His6 antibody; A450 fitted by non-linear regression.

T1 sequence (P31751 whole entry): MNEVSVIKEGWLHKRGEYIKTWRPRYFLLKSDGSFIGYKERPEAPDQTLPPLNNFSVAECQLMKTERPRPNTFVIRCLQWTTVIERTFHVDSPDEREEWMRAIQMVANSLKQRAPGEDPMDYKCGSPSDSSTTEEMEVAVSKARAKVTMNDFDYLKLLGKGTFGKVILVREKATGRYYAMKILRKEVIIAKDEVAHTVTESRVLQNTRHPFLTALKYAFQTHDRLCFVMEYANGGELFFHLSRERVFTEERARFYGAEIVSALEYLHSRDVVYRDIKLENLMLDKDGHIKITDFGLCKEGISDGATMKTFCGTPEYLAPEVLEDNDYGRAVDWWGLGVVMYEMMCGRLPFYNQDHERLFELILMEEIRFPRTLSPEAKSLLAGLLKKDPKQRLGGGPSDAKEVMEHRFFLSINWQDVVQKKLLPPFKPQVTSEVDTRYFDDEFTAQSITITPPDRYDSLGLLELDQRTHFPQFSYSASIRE
T2 sequence (P31751 whole entry): as above

For the compound `C[C@@H](O)[C@@H]1NC(=O)[C@H](Cc2ccc(O)cc2)NC(=O)[C@H]([C@@H](C)O)NC(=O)[C@H](Cc2ccc(O)cc2)NC(=O)[C@H](Cc2ccc(O)cc2)NC(=O)[C@](C)(N)CCCCCCC=CCCC[C@@](C)(C(N)=O)NC(=O)CNC1=O` [C2, Cy(YYTYTG-rcm)] (H-[R8]YYTYTG[S5]-NH2; staple 1-8; N-terminus and C-terminus assumed), in assay [1], the EC50 was 44 nM and 42 nM.

For `NC1(c2ccc(-c3nc4ccn5c(=O)[nH]nc5c4cc3-c3ccccc3)cc2)CCC1` [MK-2206], the “inhibition of Akt3 relative to Akt1 and Akt2” value with recombinant Akt3 is “five-fold less”. Consider Cy(4fF-4fF-TYTG-rcm), for which the “binding to pAkt2” value at pAkt2 is listed as “higher binding than C2”. The same measure, in the same setting: then Cy(4fF-YTYTG-rcm), with “higher signal than C2”. Same read-out and setting: then Cy(-Y4fF-TYTG-rcm), with “higher signal than C2”; and Cy(YYT-4fF-TG-rcm), with “decreases binding”. In the case of Cy(YYTYT-Tz4) [C1], the EC50 in assay [2] was 120 nM. Further, the “binding to target phosphorylated chemical epitope” value in assay [3] is given as “better binding affinity for target chemical; also recorded: binds significantly better than the linear non-cyclized; also recorded: is a better binder than the latter”. The “selectivity for pAkt2 over other pAkt isoforms” value at pAkt2 (25 nM His6-pAkt1, pAkt2, pAkt3) is listed as “selective for pAkt2 over the other two isoforms”. Further, the “binding to pAkt2” value on pAkt2 was “binds to the target pAkt2 protein”.

For the compound Cy(YYTYTG-Tz4), at pAkt2, the “binding to pAkt2” value is listed as “does not”. Same read-out and setting: the value for Cy(YYTY’T’Grcm) was “show no binding”; that for Cy(Y’YTY’TGrcm) was “show no binding”. For the compound “full-length active His6-tagged Akt2, phosphorylated at Ser474 (pAkt2) (from UniProt P31751 1-481) (enzyme)”, in assay [4], the EC50 came out at 44 nM.
